The record followed here is US20240116985A1, “STAPLED PEPTIDES AND METHODS THEREOF” (priority 2020, published 2024).

The assay has as its target T1, full-length beta-Catenin (Uniprot ID P35222) (Homo sapiens, UniProt P35222).
T1 construct: 10 nM full-length beta-Catenin (Uniprot ID P35222)
T1 sequence (P35222 1-781): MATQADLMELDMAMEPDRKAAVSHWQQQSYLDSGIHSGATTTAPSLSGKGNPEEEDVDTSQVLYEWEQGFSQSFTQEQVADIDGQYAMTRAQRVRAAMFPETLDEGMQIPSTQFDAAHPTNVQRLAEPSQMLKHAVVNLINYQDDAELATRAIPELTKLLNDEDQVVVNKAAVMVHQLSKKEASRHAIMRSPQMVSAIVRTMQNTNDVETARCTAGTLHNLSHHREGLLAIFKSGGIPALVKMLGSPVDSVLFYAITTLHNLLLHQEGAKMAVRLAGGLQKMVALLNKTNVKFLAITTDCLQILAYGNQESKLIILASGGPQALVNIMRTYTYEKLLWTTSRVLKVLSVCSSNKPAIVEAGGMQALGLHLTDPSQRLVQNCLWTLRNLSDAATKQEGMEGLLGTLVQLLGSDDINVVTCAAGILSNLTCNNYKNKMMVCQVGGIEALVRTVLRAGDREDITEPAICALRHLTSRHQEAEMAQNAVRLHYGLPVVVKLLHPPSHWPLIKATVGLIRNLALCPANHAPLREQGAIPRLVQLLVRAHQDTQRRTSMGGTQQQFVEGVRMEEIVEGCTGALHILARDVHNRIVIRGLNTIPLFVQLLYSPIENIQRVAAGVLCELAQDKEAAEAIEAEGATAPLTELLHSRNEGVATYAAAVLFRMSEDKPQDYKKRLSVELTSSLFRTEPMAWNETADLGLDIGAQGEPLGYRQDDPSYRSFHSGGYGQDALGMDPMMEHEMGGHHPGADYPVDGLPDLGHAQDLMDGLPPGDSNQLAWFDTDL
As to the kind of experiment: Fluorescence polarization IC50 (beta-catenin / 5FAM-TCF4 10-53 competition). It is filed as binding. Conditions: fluorescence polarization; read-out: beta-Catenin FP IC50. In general terms: Polarisation of emitted light reports the rotation of a fluorescent probe.

Usually IC50 stands for the concentration that inhibits the measured activity by half. With `CC(=O)N1CCC[C@]12CC=CCC1(CC=CCCCCOC(=O)N3CC[C@@](C(=O)N[C@@H](Cc4ccsc4)C(=O)N[C@@H](Cc4csc5ccccc45)C(=O)N[C@@H](CCC(N)=O)C(N)=O)(C3)NC(=O)[C@H](CC(C)C)NC(=O)[C@H](Cc3ccccc3)NC(=O)[C@H](C)NC(=O)[C@H](C)NC(=O)[C@H](CC(=O)O)NC(=O)[C@H](CC(=O)O)NC1=O)NC(=O)[C@H](CC(C)(C)C)NC(=O)[C@H](CC(=O)O)NC2=O` (stereo partly drawn) [I-2157, Ac-PL3-Asp-Npg-B3-Asp-Asp-Ala-Ala-Phe-Leu-PyrS3-3Thi-BztA-Gln-NH2], the IC50 came to 141 nM. On to `CC(=O)N1CCC[C@]12CCCCC1(CCCCCCOC(=O)N3CC[C@@](C(=O)N[C@@H](Cc4ccsc4)C(=O)N[C@@H](Cc4csc5ccccc45)C(=O)N[C@@H](CCC(N)=O)C(N)=O)(C3)NC(=O)[C@H](CC(C)C)NC(=O)[C@H](Cc3ccccc3)NC(=O)[C@H](C)NC(=O)[C@H](C)NC(=O)[C@H](CC(=O)O)NC(=O)[C@H](CC(=O)O)NC1=O)NC(=O)[C@H](CC(C)(C)C)NC(=O)[C@H](CC(=O)O)NC2=O` (stereo partly drawn) [I-2160, Ac-PL3-Asp-Npg-B3-Asp-Asp-Ala-Ala-Phe-Leu-PyrS2-3Thi-BztA-Gln-NH2], for which the 50% inhibitory concentration (IC50) was found to be 1240 nM. The result for `CC(=O)N1CCC[C@]12CC=CCCCC1(CCCC=CCCCOC(=O)N3CC[C@@](C(=O)N[C@@H](Cc4cccc(C(N)=O)c4)C(=O)N[C@@H](Cc4csc5ccccc45)C(=O)N[C@@H](CCC(N)=O)C(N)=O)(C3)NC(=O)[C@H](CC(C)C)NC(=O)[C@H](Cc3ccccc3)NC(=O)[C@H](C)NC(=O)[C@H](CCCCNC(C)C)NC(=O)[C@H](CCC(N)=O)NC(=O)[C@H](CC(=O)O)NC1=O)NC(=O)[C@H](CC1CCCCC1)NC(=O)[C@H](CC(N)=O)NC2=O` (stereo partly drawn) [I-2163, Ac-PL3-Asn-Cha-B5-Asp-Gln-iPrLys-Ala-Phe-Leu-PyrS2-3cbmf-BztA-Gln-NH2] reads 3720 nM; that for `CC(=O)N1CCC[C@]12CC=CCCCC1(CCCC=CCCCOC(=O)N3CC[C@@](C(=O)N[C@@H](Cc4cccc(C(N)=O)c4)C(=O)N[C@@H](Cc4csc5ccccc45)C(=O)N[C@@H](CCC(N)=O)C(N)=O)(C3)NC(=O)[C@H](CC(N)=O)NC(=O)[C@H](Cc3ccccc3)NC(=O)[C@H](C)NC(=O)[C@H](CCCCNC(C)C)NC(=O)[C@H](CCC(N)=O)NC(=O)[C@H](CC(=O)O)NC1=O)NC(=O)[C@H](CC1CCCCC1)NC(=O)[C@H](CC(N)=O)NC2=O` (stereo partly drawn) [I-2164, Ac-PL3-Asn-Cha-B5-Asp-Gln-iPrLys-Ala-Phe-Asn-PyrS2-3cbmf-BztA-Gln-NH2], 1180 nM. Consider `CC(=O)N1CCC[C@]12CC=CCCCC1(CCCC=CCCCOC(=O)N3CC[C@@](C(=O)N[C@@H](Cc4ccccc4)C(=O)N[C@@H](Cc4csc5ccccc45)C(=O)N[C@@H](CCO)C(N)=O)(C3)NC(=O)[C@H](CC(C)C)NC(=O)[C@H](Cc3ccccc3)NC(=O)[C@H](C)NC(=O)[C@H](CCCCNC(C)C)NC(=O)[C@H](CCC(N)=O)NC(=O)[C@H](CC(=O)O)NC1=O)NC(=O)[C@H](CC1CCCCC1)NC(=O)[C@H](CC(N)=O)NC2=O` (stereo partly drawn) [I-2165, Ac-PL3-Asn-Cha-B5-Asp-Gln-iPrLys-Ala-Phe-Leu-PyrS2-Phe-BztA-Hse-NH2], for which the IC50 stood at 441 nM. In the case of `CC(=O)N1CCC[C@]12CC=CCCCC1(CCCC=CCCCOC(=O)N3CC[C@@](C(=O)N[C@@H](Cc4cccc(C(N)=O)c4)C(=O)N[C@@H](Cc4csc5ccccc45)C(=O)N[C@@H](CCO)C(N)=O)(C3)NC(=O)[C@H](CC(C)C)NC(=O)[C@H](Cc3ccccc3)NC(=O)[C@H](C)NC(=O)[C@H](CCCCNC(C)C)NC(=O)[C@H](CCC(N)=O)NC(=O)[C@H](CC(=O)O)NC1=O)NC(=O)[C@H](CC1CCCCC1)NC(=O)[C@H](CC(N)=O)NC2=O` (stereo partly drawn) [I-2166, Ac-PL3-Asn-Cha-B5-Asp-Gln-iPrLys-Ala-Phe-Leu-PyrS2-3cbmf-BztA-Hse-NH2], the IC50 was determined as 1590 nM. Regarding `CC(=O)N1CCC[C@]12CC=CCCCC1(CCCC=CCCCOC(=O)N3CC[C@@](C(=O)N[C@@H](Cc4ccccc4)C(=O)N[C@@H](Cc4csc5ccccc45)C(=O)N[C@@H](CCO)C(N)=O)(C3)NC(=O)[C@H](CC(N)=O)NC(=O)[C@H](Cc3ccccc3C(N)=O)NC(=O)[C@H](C)NC(=O)[C@H](CCCCNC(C)C)NC(=O)[C@H](CCC(N)=O)NC(=O)[C@H](CC(=O)O)NC1=O)NC(=O)[C@H](CC1CCCCC1)NC(=O)[C@H](CC(N)=O)NC2=O` (stereo partly drawn) [I-2173, Ac-PL3-Asn-Cha-B5-Asp-Gln-iPrLys-Ala-2cbmf-Asn-PyrS2-Phe-BztA-Hse-NH2], the IC50 is 3070 nM.

Turning to `CC(=O)N1CCC[C@]12CC=CCCCC1(CCCC=CCCCOC(=O)N3CC[C@@](C(=O)N[C@@H](Cc4ccsc4)C(=O)N[C@@H](Cc4c[nH]c5ccccc45)C(=O)N[C@@H](CCC(N)=O)C(N)=O)(C3)NC(=O)[C@H](CC(N)=O)NC(=O)[C@H](Cc3ccccc3)NC(=O)[C@H](C)NC(=O)[C@H](C)NC(=O)[C@H](CC(=O)O)NC(=O)[C@H](CC(=O)O)NC1=O)NC(=O)[C@H](CC(C)(C)C)NC(=O)[C@H](CC(=O)O)NC2=O` (stereo partly drawn) [I-2175, Ac-PL3-Asp-Npg-B5-Asp-Asp-Ala-Ala-Phe-Asn-PyrS2-3Thi-Trp-Gln-NH2], the 50% inhibitory concentration (IC50) turned out to be 19 nM. As for `CC(=O)N1CCC[C@]12CC=CCCCC1(CCCC=CCCCOC(=O)N3CC[C@@](C(=O)N[C@@H](Cc4ccsc4)C(=O)N[C@@H](Cc4c[nH]c5cccc(Cl)c45)C(=O)N[C@@H](CCC(N)=O)C(N)=O)(C3)NC(=O)[C@H](CC(N)=O)NC(=O)[C@H](Cc3ccccc3)NC(=O)[C@H](C)NC(=O)[C@H](C)NC(=O)[C@H](CC(=O)O)NC(=O)[C@H](CC(=O)O)NC1=O)NC(=O)[C@H](CC(C)(C)C)NC(=O)[C@H](CC(=O)O)NC2=O` (stereo partly drawn) [I-2176, Ac-PL3-Asp-Npg-B5-Asp-Asp-Ala-Ala-Phe-Asn-PyrS2-3Thi-4C1W-Gln-NH2], the IC50 is 87 nM. `CC(=O)N1CCC[C@]12CC=CCCCC1(CCCC=CCCCOC(=O)N3CC[C@@](C(=O)N[C@@H](Cc4ccsc4)C(=O)N[C@@H](Cc4c[nH]c5cccc(Cl)c45)C(=O)N[C@@H](CCC(N)=O)C(N)=O)(C3)NC(=O)[C@H](CC(C)C)NC(=O)[C@H](Cc3ccccc3)NC(=O)[C@H](C)NC(=O)[C@H](C)NC(=O)[C@H](CC(=O)O)NC(=O)[C@H](CC(=O)O)NC1=O)NC(=O)[C@H](CC(C)(C)C)NC(=O)[C@H](CC(=O)O)NC2=O` (stereo partly drawn) [I-2177, Ac-PL3-Asp-Npg-B5-Asp-Asp-Ala-Ala-Phe-Leu-PyrS2-3Thi-4C1W-Gln-NH2]: the half-inhibitory concentration (IC50) is 253 nM. For `CC(=O)N1CCC[C@]12CC=CCCCC1(CCCC=CCCCOC(=O)N3CC[C@@](C(=O)N[C@@H](Cc4ccsc4)C(=O)N[C@@H](Cc4c[nH]c5cccc(F)c45)C(=O)N[C@@H](CCC(N)=O)C(N)=O)(C3)NC(=O)[C@H](CC(N)=O)NC(=O)[C@H](Cc3ccccc3)NC(=O)[C@H](C)NC(=O)[C@H](C)NC(=O)[C@H](CC(=O)O)NC(=O)[C@H](CC(=O)O)NC1=O)NC(=O)[C@H](CC(C)(C)C)NC(=O)[C@H](CC(=O)O)NC2=O` (stereo partly drawn) [I-2178, Ac-PL3-Asp-Npg-B5-Asp-Asp-Ala-Ala-Phe-Asn-PyrS2-3Thi-4FW-Gln-NH2], the half-maximal inhibitory concentration (IC50) was determined as 42 nM.

For the molecule `CC(=O)N1CCC[C@]12CC=CCCCC1(CCCC=CCCCOC(=O)N3CC[C@@](C(=O)N[C@@H](Cc4ccsc4)C(=O)N[C@@H](Cc4c[nH]c5cccc(F)c45)C(=O)N[C@@H](CCC(N)=O)C(N)=O)(C3)NC(=O)[C@H](CC(C)C)NC(=O)[C@H](Cc3ccccc3)NC(=O)[C@H](C)NC(=O)[C@H](C)NC(=O)[C@H](CC(=O)O)NC(=O)[C@H](CC(=O)O)NC1=O)NC(=O)[C@H](CC(C)(C)C)NC(=O)[C@H](CC(=O)O)NC2=O` (stereo partly drawn) [I-2179, Ac-PL3-Asp-Npg-B5-Asp-Asp-Ala-Ala-Phe-Leu-PyrS2-3Thi-4FW-Gln-NH2], the concentration for half-maximal inhibition (IC50) was 67 nM. As for `CC(=O)N1CCC[C@]12CC=CCCCC1(CCCC=CCCCOC(=O)N3CC[C@@](C(=O)N[C@@H](Cc4ccsc4)C(=O)N[C@@H](Cc4c[nH]c5ncccc45)C(=O)N[C@@H](CCC(N)=O)C(N)=O)(C3)NC(=O)[C@H](CC(N)=O)NC(=O)[C@H](Cc3ccccc3)NC(=O)[C@H](C)NC(=O)[C@H](C)NC(=O)[C@H](CC(=O)O)NC(=O)[C@H](CC(=O)O)NC1=O)NC(=O)[C@H](CC(C)(C)C)NC(=O)[C@H](CC(=O)O)NC2=O` (stereo partly drawn) [I-2180, Ac-PL3-Asp-Npg-B5-Asp-Asp-Ala-Ala-Phe-Asn-PyrS2-3Thi-7AzaW-Gln-NH2], the IC50 was 2090 nM. Regarding `CC(=O)N1CCC[C@]12CC=CCCCC1(CCCC=CCCCOC(=O)N3CC[C@@](C(=O)N[C@@H](Cc4ccsc4)C(=O)N[C@@H](Cc4c[nH]c5ncccc45)C(=O)N[C@@H](CCC(N)=O)C(N)=O)(C3)NC(=O)[C@H](CC(C)C)NC(=O)[C@H](Cc3ccccc3)NC(=O)[C@H](C)NC(=O)[C@H](C)NC(=O)[C@H](CC(=O)O)NC(=O)[C@H](CC(=O)O)NC1=O)NC(=O)[C@H](CC(C)(C)C)NC(=O)[C@H](CC(=O)O)NC2=O` (stereo partly drawn) [I-2181, Ac-PL3-Asp-Npg-B5-Asp-Asp-Ala-Ala-Phe-Leu-PyrS2-3Thi-7AzaW-Gln-NH2], the 50% inhibitory concentration (IC50) amounted to 2880 nM.
